# PubChem BioAssay AID2840 (Southern Research Specialized Biocontainment Screening …, 2010)
# Active and inactive are the calls of the source. No rule for the calls is given here.
# System: not listed separately
# Assay: GFP reporter counter screen, PhoP regulon inhibitors, Salmonella typhi, fluorescence inhibition (AID 2840)
# Details: Salmonella typhi GFP reporter counter-screen, fluorescence, 4 h; at 150 µM (top of the series)
row,Structure (SMILES),inhibition
1,S=C(NCc1ccc(Cl)cc1)Nc1ccc(Br)cc1,1.55% (inactive)
2,COc1ccc(CNC(=S)Nc2ccncc2)cc1,15.2% (inactive)
3,O=C1C2=C(Nc3ccccc3SC2c2cccc(Cl)c2)c2ccccc21 (stereo unspecified),14.9% (inactive)
4,Cc1ccc(NC(=S)NCc2ccc(Cl)cc2)cc1,1.23% (inactive)
5,CCOc1ccc(NC(=S)N2CCN(c3cc4c(cc3F)c(=O)c(C(=O)O)cn4CC)CC2)cc1,15.7% (inactive)
6,O=C1C2=C(Nc3ccccc3SC2c2ccccc2Cl)c2ccccc21 (stereo unspecified),24.5% (inactive)
7,CCn1cc(C(=O)O)c(=O)c2cc(F)c(N3CCN(C(=S)NC)CC3)cc21,-11.9% (inactive)
8,Fc1ccccc1NC(=S)NCc1ccc(Cl)cc1,1.61% (inactive)
9,CCn1cc(C(=O)O)c(=O)c2cc(F)c(N3CCN(C(=S)Nc4ccccc4Cl)CC3)cc21,17.6% (inactive)
10,COc1ccc(NC(=S)NCc2ccc(Cl)cc2)cc1,8.1% (inactive)
11,O=C(Nc1ccccc1)N1CCCN(Cc2ccccc2F)C1,14.4% (inactive)
12,S=C(NCc1ccc(Cl)cc1)Nc1ccc(Cl)cc1,0.06% (inactive)
13,COc1cccc(C2Sc3ccccc3NC3=C2C(=O)c2ccccc23)c1 (stereo unspecified),14.1% (inactive)
14,CCn1cc(C(=O)O)c(=O)c2cc(F)c(N3CCN(C(=S)Nc4ccc(Cl)cc4)CC3)cc21,39.1% (inactive)
15,O=C1C2=C(Nc3ccccc3SC2c2ccsc2)c2ccccc21 (stereo unspecified),13.1% (inactive)
16,S=C(NCc1ccccc1Cl)Nc1ccncc1,6.49% (inactive)
17,O=C1C2=C(Nc3ccccc3SC2c2ccccc2C(F)(F)F)c2ccccc21 (stereo unspecified),7.85% (inactive)
18,CCn1cc(C(=O)O)c(=O)c2cc(F)c(N3CCN(C(=S)NCc4ccccc4)CC3)cc21,13.2% (inactive)
19,S=C(NCc1ccc(Cl)cc1)Nc1cccc(Cl)c1,21.5% (inactive)
20,O=C1C2=C(Nc3ccccc3SC2c2ccccc2Br)c2ccccc21 (stereo unspecified),9.22% (inactive)
21,COc1cccc(NC(=S)NCc2ccc(Cl)cc2)c1,2.87% (inactive)
22,Cc1cccc(NC(=S)NCc2ccc(Cl)cc2)c1,3.06% (inactive)
23,COc1ccccc1NC(=O)N1CCCN(Cc2ccccc2F)C1,21% (inactive)
24,S=C(NCc1ccc(Cl)cc1)Nc1cccnc1,-15.5% (inactive)
25,O=C1C2=C(Nc3ccccc3SC2c2ccc(I)cc2)c2ccccc21 (stereo unspecified),37.4% (inactive)
26,O=C(NCc1ccccc1)N1CCCN(Cc2ccccc2F)C1,-5% (inactive)
27,O=C(Nc1ccccc1Cl)N1CCCN(Cc2ccccc2F)C1,0.77% (inactive)
28,CCn1cc(C(=O)O)c(=O)c2cc(F)c(N3CCN(C(=S)Nc4ccccc4C)CC3)cc21,22% (inactive)

# System: Salmonella typhi GFP reporter counter-screen, fluorescence, 4 h
# Assay: as above
# Details: not given
row,Structure (SMILES),IC50
1,C1=C(CCNc2ncnc3c2[nH]c2ccccc23)CCCC1,< 150 nM
2,S=C(NCc1ccc(Cl)cc1)Nc1ccncc1,< 150 nM
3,N#C/C(=C\c1ccc[nH]1)C(=O)NC1CC1,< 150 nM
4,O=c1c2ccccc2[nH]c2ccc(F)cc12,< 150 nM
5,Cc1ccc(CN2CCCN(C(=O)Nc3ccc(Cl)cc3)C2)cc1,99800 nM
6,CN1CCc2nc(SCC(=O)Nc3cccc(F)c3)c(C#N)c(-c3cccs3)c2C1,< 150 nM
7,CN1CCN(C2=Cc3cc(Cl)ccc3Sc3cc(F)ccc32)CC1,< 150 nM
8,CSc1nc2cc(Oc3cccc(Cl)c3Cl)c(Cl)cc2[nH]1,< 150 nM
9,CCn1cc(C(=O)O)c(=O)c2cc(F)c(N3CCN(C(=S)Nc4ccccc4C(F)(F)F)CC3)cc21,104000 nM
10,O=S(=O)(Nc1c(S(=O)(=O)c2ccccc2)c2nc3ccccc3nc2n1C1CCCCC1)c1ccccc1,< 150 nM
11,O=[N+]([O-])c1ccc(CNC2CCCc3ccccc32)cc1 (stereo unspecified),< 150 nM
12,O=C(Nc1nnc(-c2cccs2)o1)c1cccc(C(F)(F)F)c1,< 150 nM
13,CCn1cc(C(=O)O)c(=O)c2cc(F)c(N3CCN(C(=S)NC(=O)c4ccccc4Cl)CC3)cc21,< 150 nM
14,CCCCn1c(NS(=O)(=O)c2ccccc2)c(S(=O)(=O)c2ccc(C)cc2)c2nc3ccccc3nc21,< 150 nM
15,O=C1C2=C(Nc3ccccc3SC2c2ccc(C(F)(F)F)cc2)c2ccccc21 (stereo unspecified),107000 nM
16,O=C1c2ccccc2C2=Nc3ccccc3SC(c3ccccc3F)C12 (stereo unspecified),< 150 nM
17,COc1ccccc1Nc1nc(NCc2ccco2)c2ccccc2n1,< 150 nM
18,CCCCCNC(=O)c1cn(CC)c2cc(N3CCN(C)CC3)c(F)cc2c1=O,< 150 nM
19,O=C(O)c1cn(-c2ccc(F)cc2)c2cc(Cl)c(F)cc2c1=O,< 150 nM
20,O=C(Nc1ccc(Cl)cc1)N1CCCN(Cc2ccccc2F)C1,< 150 nM
21,COc1c(N2CCN(C(=S)NCc3ccccc3)C(C)C2)c(F)cc2c(=O)c(C(=O)O)cn(C3CC3)c12 (stereo unspecified),< 150 nM
22,Cc1ccc(Nc2cc(C)c3c(O)cccc3n2)cc1C,< 150 nM
23,COc1ccc(NC(=O)c2cc(Br)c(Br)s2)cn1,< 150 nM
24,CCn1cc(C(=O)O)c(=O)c2cc(F)c(N3CCN(C(=S)NC(=O)c4ccccc4F)CC3)cc21,< 150 nM
25,CCCCn1c(NS(=O)(=O)c2ccc(C)cc2)c(S(=O)(=O)c2ccccc2)c2nc3ccccc3nc21,< 150 nM
26,O=C1C2=C(Nc3ccccc3SC2c2ccco2)c2ccccc21 (stereo unspecified),< 150 nM
27,O=C(Nc1cccnc1)c1cc(Br)c(Br)s1,< 150 nM
28,CN(C)CCCN(C(=O)CCc1ccccc1)c1nc2ccc(Cl)cc2s1,< 150 nM
